# Measured values published in US20150158845A1, “5-HALOGEN-SUBSTITUTED OXINDOLE DERIVATIVES AND USE THEREOF FOR TREATING VASOPRESSIN-DEPENDENT DISEASES” (ABBVIE DEUTSCHLAND GMBH & CO. KG, priority 2007, published 2015).
# Experiments:
# [1] = Determination of the microsomal half-life / microsomal clearance; type: in vitro ADME; conditions: human liver microsomes, 0.5 μM test substance, 0.25 mg microsomal protein/ml; for microsomal CLint at 0.5 μM: pH 7.4
# Experimental: 5. Determination of the Microsomal Half-Life:
# The metabolic stability of the compounds of the invention was determined in the following assay.
# The test substances were incubated in a concentration of 0.5 μM as follows: 0.5 μM test substance are preincubated together with liver microsomes from different species (from rat, human or other species) (0.25 mg of microsomal protein/ml) in 0.05 M potassium phosphate buffer of pH 7.4 in microtiter plates at 37° C. for 5 min. The reaction is started by adding NADPH (1 mg/mL). After 0, 5, 10, 15, 20 and 30 min, 50 μl aliquots are removed, and the reaction is immediately stopped and cooled with the same volume of acetonitrile. The samples are frozen until analyzed. The remaining concentration of undegraded test substance is determined by MSMS. The half-life (T½) is determined from the gradient of the signal of test substance/unit time plot, it being possible to calculate the half-life of the test substance, assuming first order kinetics, from the decrease in the concentration of the compound with time. The microsomal clearance (mCl) is calculated from mCl=In2/T½/(content of microsomal protein in mg/ml)×1000 […] (modified from references: Di, The Society for Biomoleculur Screening, 2003, 453-462; Obach, DMD, 1999 vol 27. N 11, 1350-1359).
# [2] = target: human vasopressin V1a receptor (Homo sapiens, UniProt P37288); experiment: Vasopressin V1a receptor binding assay; conditions: selectivity: quotient of Ki at human V1a and Ki at human V1b
# [3] = target: T1, human vasopressin V1b receptor (Homo sapiens, UniProt P47901); experiment: Vasopressin V1b receptor binding assay; conditions: membranes from CHO-K1 cells with human V1b receptor, 1.5 nM 3H-AVP
# T1 construct: expressed in transfected cells; host or cells: CHO-K1 (clone 3H2; cell line hV1b-3H2_CHO), membrane preparation
# T1 sequence (P47901 1-424): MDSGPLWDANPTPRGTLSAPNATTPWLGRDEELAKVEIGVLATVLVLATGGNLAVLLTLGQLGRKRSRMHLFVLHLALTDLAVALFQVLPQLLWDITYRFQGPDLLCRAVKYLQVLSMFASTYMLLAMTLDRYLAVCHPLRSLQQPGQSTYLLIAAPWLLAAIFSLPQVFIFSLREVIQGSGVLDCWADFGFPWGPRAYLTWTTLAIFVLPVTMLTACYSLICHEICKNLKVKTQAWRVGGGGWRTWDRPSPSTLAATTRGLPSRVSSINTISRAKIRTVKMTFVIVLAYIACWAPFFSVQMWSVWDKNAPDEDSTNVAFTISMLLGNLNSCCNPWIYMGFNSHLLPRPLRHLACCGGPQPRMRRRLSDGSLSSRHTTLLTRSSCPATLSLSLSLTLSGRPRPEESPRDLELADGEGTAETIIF
# Experimental: 1. Vasopressin V1b Receptor Binding Assay:
# The substance concentration was further diluted 1:5 in the assay mixture (2% DMSO in the mixture).
# The nonspecific binding was determined with 1 M AVP (Bachem # H1780). All determinations were carried out as triplicate determinations.
# Chain of human vasopressin V1a receptor (P37288 whole entry): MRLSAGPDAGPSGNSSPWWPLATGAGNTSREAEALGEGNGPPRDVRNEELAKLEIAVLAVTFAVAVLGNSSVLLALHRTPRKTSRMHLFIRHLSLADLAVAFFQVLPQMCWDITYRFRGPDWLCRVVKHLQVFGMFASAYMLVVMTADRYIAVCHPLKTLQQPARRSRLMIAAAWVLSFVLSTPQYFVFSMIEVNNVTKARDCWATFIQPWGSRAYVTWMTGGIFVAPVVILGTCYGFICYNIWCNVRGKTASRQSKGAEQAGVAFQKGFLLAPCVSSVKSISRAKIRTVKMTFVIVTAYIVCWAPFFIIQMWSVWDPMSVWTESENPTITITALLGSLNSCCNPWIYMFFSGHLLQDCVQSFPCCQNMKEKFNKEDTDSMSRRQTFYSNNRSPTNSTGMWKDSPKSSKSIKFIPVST
microsomal CLint at 0.5 μM [1],SMILES,Ki(h-V1a)/Ki(h-V1b) [2],Ki [3],Human microsomal clearance [1]
75 to 100 µL/min/mg,"CCOc1ncccc1C1(NC(=O)N2CCN(C3CCN(C)CC3)CC2)C(=O)N(S(=O)(=O)c2ccc(OC)cc2OC)c2ccc(Cl)cc21 (racemic) [Example 1, (±)-4-(1-Methylpiperidin-4-yl)piperazin-1-[5-chloro-1-(2,4-dimethoxyphenylsulfonyl)-3-(2-ethoxypyridin-3-yl)-2-oxo-2,3-dihydro-1H-indol-3-yl]carboxamide]",+++ (>75),< 1 nM,–
–,"CCOc1ncccc1C1(NC(=O)N2CCN(C3CCN(C)CC3)CC2)C(=O)N(S(=O)(=O)c2ccccc2)c2ccc(Cl)cc21.O=C(O)C(F)(F)F (racemic) [Example 3, (±)-4-(1-Methylpiperidin-4-yl)piperazine-1-[1-phenylsulfonyl-5-chloro-3-(2-ethoxypyridin-3-yl)-2-oxo-2,3-dihydro-1H-indol-3-yl]carboxamide, trifluoroacetic acid salt]",++ (25-75),1 to 10 nM,+++ (<50 μl min^−1 mg^−1)
75 to 100 µL/min/mg,"CCOc1ncccc1C1(NC(=O)N2CCC(C3CCN(C)CC3)CC2)C(=O)N(S(=O)(=O)c2ccc(OC)cc2OC)c2ccc(Cl)cc21 (racemic) [Example 13, (±)-1′-Methyl-[4,4′]bipiperidinyl-1-[5-chloro-1-(2,4-dimethoxyphenylsulfonyl)-3-(2-ethoxypyridin-3-yl)-2-oxo-2,3-dihydro-1H-indol-3-yl]carboxamide]",++ (25-75),< 1 nM,–
–,"CCOc1ncc(C)cc1C1(NC(=O)N2CCN(C3CCN(C)CC3)CC2)C(=O)N(S(=O)(=O)c2ccc(OC)cc2OC)c2ccc(Cl)cc21.O=C(O)C(F)(F)F (racemic) [Example 14, (±)-4-(1-Methylpiperidin-4-yl)piperazine-1-[5-chloro-1-(2,4-dimethoxyphenylsulfonyl)-3-(2-ethoxy-5-methylpyridin-3-yl)-2-oxo-2,3-dihydro-1H-indol-3-yl]carboxamide, trifluoroacetic acid salt]",+++ (>75),< 1 nM,++ (50-75 μl min^−1 mg^−1)
–,"CCOc1ncc(C)cc1C1(NC(=O)N2CCN(C3CCN(CC)CC3)CC2)C(=O)N(S(=O)(=O)c2ccc(OC)cc2OC)c2ccc(Cl)cc21.O=C(O)C(F)(F)F (racemic) [Example 15, (±)-4-(1-Ethylpiperidin-4-yl)piperazine-1-[5-chloro-1-(2,4-dimethoxyphenylsulfonyl)-3-(2-ethoxy-5-methylpyridin-3-yl)-2-oxo-2,3-dihydro-1H-indol-3-yl]carboxamide, trifluoroacetic acid salt]",++ (25-75),< 1 nM,+ (>75-100 μl min^−1 mg^−1)
–,"CCOc1ncc(C)cc1C1(NC(=O)N2CCC(N3CCN(C)CC3)CC2)C(=O)N(S(=O)(=O)c2ccc(OC)cc2OC)c2ccc(Cl)cc21.O=C(O)C(F)(F)F (racemic) [Example 16, (±)-4-(4-Methylpiperazin-1-yl)piperidine-1-[5-chloro-1-(2,4-dimethoxyphenylsulfonyl)-3-(2-ethoxy-5-methylpyridin-3-yl)-2-oxo-2,3-dihydro-1H-indol-3-yl]carboxamide, trifluoroacetic acid salt]",+ (10-<25),< 1 nM,+ (>75-100 μl min^−1 mg^−1)
–,"CCOc1ncc(C)cc1C1(NC(=O)N2CCC(N3CCN(CC)CC3)CC2)C(=O)N(S(=O)(=O)c2ccc(OC)cc2OC)c2ccc(Cl)cc21.O=C(O)C(F)(F)F (racemic) [Example 17, (±)-4-(4-Ethylpiperazin-1-yl)piperidine-1-[5-chloro-1-(2,4-dimethoxyphenylsulfonyl)-3-(2-ethoxy-5-methylpyridin-3-yl)-2-oxo-2,3-dihydro-1H-indol-3-yl]carboxamide, trifluoroacetic acid salt]",+ (10-<25),< 1 nM,+ (>75-100 μl min^−1 mg^−1)
< 50 µL/min/mg,"CCOc1ncccc1C1(NC(=O)N2CCN(C3CCN(C)CC3)CC2)C(=O)N(S(=O)(=O)c2ccc(OC)cc2OC)c2ccc(Cl)cc21 (single isomer, unassigned; (+)) [Example 1B, (+)-4-(1-Methylpiperidin-4-yl)piperazine-1-[5-chloro-1-(2,4-dimethoxyphenylsulfonyl)-3-(2-ethoxypyridin-3-yl)-2-oxo-2,3-dihydro-1H-indol-3-yl]carboxamide]",+++ (>75),< 1 nM,–
50 to 75 µL/min/mg,"CCOc1ncccc1C1(NC(=O)N2CCN(C3CCN(CC)CC3)CC2)C(=O)N(S(=O)(=O)c2ccc(OC)cc2OC)c2ccc(Cl)cc21 (single isomer, unassigned; (+)) [Example 4B, (+)-4-(1-Ethylpiperidin-4-yl)piperazine-1-[5-chloro-1-(2,4-dimethoxyphenylsulfonyl)-3-(2-ethoxypyridin-3-yl)-2-oxo-2,3-dihydro-1H-indol-3-yl]carboxamide]",+++ (>75),< 1 nM,–
< 50 µL/min/mg,"CCOc1ncccc1C1(NC(=O)N2CCC(N3CCN(C)CC3)CC2)C(=O)N(S(=O)(=O)c2ccc(OC)cc2OC)c2ccc(Cl)cc21 (single isomer, unassigned; (+)) [Example 5B, (+)-4-(4-Methylpiperazin-1-yl)piperidine-1-[5-chloro-1-(2,4-dimethoxyphenylsulfonyl)-3-(2-ethoxypyridin-3-yl)-2-oxo-2,3-dihydro-1H-indol-3-yl]carboxamide]",+++ (>75),< 1 nM,–

SMILES,microsomal CLint at 0.5 μM [1],Ki(h-V1a)/Ki(h-V1b) [2],Ki [3],Human microsomal clearance [1]
"CCOc1ncccc1C1(OC(=O)N2CCN(C3CCN(C)CC3)CC2)C(=O)N(S(=O)(=O)c2ccccc2)c2ccc(Cl)cc21.O=C(O)C(F)(F)F (racemic) [Example 24, 1-Phenylsulfonyl-5-chloro-3-(2-ethoxypyridin-3-yl)-2-oxo-2,3-dihydro-1H-indol-3-yl (±)-4-(1-methylpiperidin-4-yl)piperazine-1-carboxylate, trifluoroacetic acid salt]",50 to 75 µL/min/mg,++ (25-75),1 to 10 nM,–
"CCOc1ncccc1C1(CC(=O)N2CCN(C3CCN(C)CC3)CC2)C(=O)N(S(=O)(=O)c2ccc(OC)cc2OC)c2ccc(Cl)cc21.O=C(O)C(F)(F)F (racemic) [Example 28, (±)-5-Chloro-1-(2,4-dimethoxyphenylsulfonyl)-3-(2-ethoxypyridin-3-yl)-3-{2-[4-(1-methylpiperidin-4-yl)piperazin-1-yl]-2-oxoethyl}-1,3-dihydroindol-2-one, trifluoroacetic acid salt]",75 to 100 µL/min/mg,++ (25-75),< 1 nM,–
"CCOc1ncccc1C1(CC(=O)N2CCN(C3CCN(C)CC3)CC2)C(=O)N(S(=O)(=O)c2ccccc2)c2ccc(Cl)cc21.O=C(O)C(F)(F)F (racemic) [Example 29, (±)-1-Phenylsulfonyl-5-chloro-3-(2-ethoxypyridin-3-yl)-3-{2-[4-(1-methylpiperidin-4-yl)piperazin-1-yl]-2-oxoethyl}-1,3-dihydroindol-2-one, trifluoroacetic acid salt]",< 50 µL/min/mg,+ (10-<25),1 to 10 nM,–
"CCOc1ncccc1C1(CC(=O)N2CCC(N3CCN(CC)CC3)CC2)C(=O)N(S(=O)(=O)c2ccc(OC)cc2OC)c2ccc(Cl)cc21.O=C(O)C(F)(F)F (racemic) [Example 32, (±)-5-Chloro-1-(2,4-dimethoxyphenylsulfonyl)-3-(2-ethoxypyridin-3-yl)-3-{2-[4-(4-ethylpiperazin-1-yl)piperidin-1-yl]-2-oxoethyl}-1,3-dihydroindol-2-one, trifluoroacetic acid salt]",50 to 75 µL/min/mg,+ (10-<25),< 1 nM,–
